Source: patent US20180028436A1, “TOPICAL FORMULATION OF HOPS EXTRACT” (priority 2016, published 2018)

Test system: fibroblast cells of L929 cell line
Test: MTT cytotoxicity assay on fibroblast cells
Assay type: cell-based
Source text: In this example, biocompatibility and toxicity of the topical formulation were studied. At first, cytotoxicity of the hops extract, hops nanoparticles (which were produced according to EXAMPLE 1), and β-cyclodextrin as the carrier were investigated as follows. The cultured fibroblast cells of L929 cell line were exposed to the hops extract, hops nanoparticles, and β-cyclodextrin in three test groups with different concentrations. Three test groups and the control group were studied in a 3-(4,5-dimethylthiazol-2-yl)-2,5-diphenyltetra-zolium bromide (MTT) assay using dimethyl thiazolyl diphenyl tetrazolium salt for evaluating the cell toxicity. FIG. 6A illustrates a MTT plot of the fibroblast cells after about 24 hours of exposing to the hops nanoparticles. Higher absorbance of the MTT dye indicates higher cellular proliferation.

OC[C@H]1O[C@@H]2O[C@H]3[C@H](O)[C@@H](O)[C@@H](O[C@H]4[C@H](O)[C@@H](O)[C@@H](O[C@H]5[C@H](O)[C@@H](O)[C@@H](O[C@H]6[C@H](O)[C@@H](O)[C@@H](O[C@H]7[C@H](O)[C@@H](O)[C@@H](O[C@H]8[C@H](O)[C@@H](O)[C@@H](O[C@H]1[C@H](O)[C@H]2O)O[C@@H]8CO)O[C@@H]7CO)O[C@@H]6CO)O[C@@H]5CO)O[C@@H]4CO)O[C@@H]3CO [β-cyclodextrin]
IC50 Value 24 hours (L929 fibroblast cells, MTT, 24 hours): >6000 µg/mL
IC50 Value 72 hours (L929 fibroblast cells, MTT, 72 hours): >6000 µg/mL
cytotoxicity effect (conclusion from IC50 values of TABLE 3): no cytotoxicity effect
